Laboratory results: patent publication US10281267B2, “Method for evaluating flow of skin, method for examining skin glow improvers, and skin glow improver” (Shiseido Company, Ltd., priority 2014, dated 2019)
Entries after “also recorded” stand apart in the source; their conditions may differ.

How the values were obtained:
horny layer cells [1] = test: Screening of specular reflectance improvers: arithmetic average roughness (Sa) of exfoliated horny layer cells by AFM; format: cell-based; settings: for screening result: specular reflectance improver: 100 μl sample on horny layer cells, 30 minutes at 37° C., nine types of cosmetic ingredients screened
Source text: The surface roughness of skin can be determined by measuring the surface of horny layer cells sampled with a strip of adhesive tape and the like using a microscope such as an atomic force microscope. Surface roughness can be calculated in terms of arithmetic average roughness (Sa) as defined in ISO25178 by acquiring 3D-scanned images captured using an atomic force microscope, correcting the inclination of the 3D shape by subtracting those images applicable to a Gaussian filter having a half width of 2 μm, displaying the images, and calculating the average of absolute values of the Z axis for each XY coordinate.
First, the arithmetic average roughness (Sa) of horny layer cells is measured (S11). Next, a sample is applied to the horny layer cells (S12). Then, the arithmetic average roughness (Sa) of the horny layer cells to which the sample has been applied is measured (S13). Next, the rate of decrease of the arithmetic average roughness (Sa) of the horny layer cells to which the sample was applied is determined relative to the arithmetic average roughness of the horny layer cells to which the sample was not applied (S14).
On the other hand, horny layer cells were exfoliated from the cheeks of the subjects using adhesive strips (Post-It®, 3M Corp.). Next, double-sided adhesive tape was adhered to a slide glass and the exfoliated horny layer cells were transferred to the slide glass. Moreover, the arithmetic average roughness (Sa) of five horny layer cells was measured using an AFM attached to the Optelics H1200A 3CCD real color confocal microscope (Lasertec Corp.) followed by determination of the average value thereof.
Horny layer cells were exfoliated from the cheeks of subjects using adhesive strips (Post-It®, 3M Corp.). Next, double-sided adhesive tape was adhered to a slide glass and the exfoliated horny layer cells were transferred to the slide glass. Moreover, the arithmetic average roughness (Sa) of five horny layer cells was measured using an AFM attached to the Optelics H1200A 3CCD real color confocal microscope (Lasertec Corp.) followed by determination of the average value thereof. Next, 100 μl of a candidate sample were dropped onto the horny layer cells followed by incubating for 30 minutes at 37° C. Moreover, arithmetic average roughness (Sa) of the aforementioned five horny layer cells was then measured in the same manner followed by determination of the average value thereof.

horny layer cells [2] = test: as above; format: cell-based; settings: trimethylglycine alone

With `O=C(O)CO` [glycolic acid] the “screening result: specular reflectance improver” value (“screening result” below) (horny layer cells [1]) was “determined to be specular reflectance improvers” and the “arithmetic average roughness (Sa) of horny layer cells” value (horny layer cells [1]; concentration 4% by weight to 40% by weight, FIG. 20) was “decreases significantly”.
For `COc1ccc(C(=O)[O-])c(O)c1.[K+]` [potassium 4-methoxysalicylate], the “rate of decrease of arithmetic average roughness (Sa) of horny layer cells” value (horny layer cells [1]; 4-MSK at 0, 0.1, 1.0, 3.0 and 10.0% by weight, FIG. 8) was “dose-dependent increase in the rate of decrease of arithmetic average roughness (Sa) up to 3.0% by weight”, the “screening result” value (horny layer cells [1]) was “determined to be specular reflectance improvers” and the “arithmetic average roughness (Sa) of horny layer cells” value (horny layer cells [1]; concentration 3% by weight to 10% by weight, FIG. 13) was “decreases significantly”.
In the case of `O=C([O-])c1ccccc1O.[Na+]` [sodium salicylate, sodium 2-hydroxybenzoate], the “screening result” value (horny layer cells [1]) is reported as “determined to be specular reflectance improvers”.
For `C[N+](C)(C)CC(=O)[O-]` [trimethylglycine], the “rate of decrease of arithmetic average roughness (Sa) of horny layer cells” value (horny layer cells [1]; TMG alone at 0, 5 and 10% by weight, FIG. 9) was “does not have the effect of smoothing the horny layer or improving skin glow; also recorded: no differences in the rates of decrease of arithmetic average roughness (Sa); also recorded: did not have an effect on the rate of decrease of Sa” and the “specular reflectance of the skin” value (horny layer cells [2]) was “confirmed to not be improved”.
